# Reference: patent US6664252B2, “4-aminopyrrolo[2,3-d]pyrimidine compounds specific to adenosine A2a receptor and uses thereof” (OSI Pharmaceuticals, Inc., priority 1999, dated 2003)
# Legend:
# [1] = biological target: T1, human A1 adenosine receptor (Homo sapiens, UniProt P30542); details: reported value; cited from earlier work
# T1 sequence (P30542 1-326): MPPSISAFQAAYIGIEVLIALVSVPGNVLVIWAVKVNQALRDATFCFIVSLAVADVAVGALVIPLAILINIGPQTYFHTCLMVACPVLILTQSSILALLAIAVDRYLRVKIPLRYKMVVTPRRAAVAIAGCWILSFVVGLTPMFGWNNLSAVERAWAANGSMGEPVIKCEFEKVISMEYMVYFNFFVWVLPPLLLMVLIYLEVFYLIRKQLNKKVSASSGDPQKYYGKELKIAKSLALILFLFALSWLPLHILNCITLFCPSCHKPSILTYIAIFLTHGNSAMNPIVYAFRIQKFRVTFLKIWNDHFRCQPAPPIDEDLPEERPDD
# human adenosine A1 (A1R) = biological target: T2, human adenosine A1 (A1R) (Homo sapiens, UniProt P30542); experiment: Yeast β-Galactosidase reporter gene assay, inhibition of NECA-induced activity, strain CY12660; assay type: cell-based; details: Table 10
# T2 construct: yeast alpha-factor (MFalpha1) prepro leader (N, cleaved yes); expressed in transfected cells; host or cells: Saccharomyces cerevisiae (strain CY12660 and related strains carrying plasmid p5095)
# T2 sequence (P30542 1-326): T1 sequence (P30542 1-326)
# [2] = biological target: T3, human A2a receptor subtype (Homo sapiens, UniProt P29274); experiment: Adenosine 2a receptor subtype competition radioligand binding, [3H]CGS-21680, HEK293 membranes; details: Table 13, in %; footnote 8: % activity @ 10 μM
# T3 construct: expressed in transfected cells; host or cells: HEK-293 (Cadus clone #5)
# [3] = biological target: T4, human A1 receptor subtype (Homo sapiens, UniProt P30542); details: Table 13, in %; footnote 8: % activity @ 10 μM
# T4 sequence (P30542 1-326): T1 sequence (P30542 1-326)
# [4] = biological target: T5, human A3 receptor subtype (Homo sapiens, UniProt P0DMS8); experiment: Adenosine 3 receptor competition radioligand binding, [125I]AB-MECA, HEK293 membranes; details: Table 14; read-out: Binding Data K1 (nM) A3
# T5 construct: expressed in transfected cells; host or cells: HEK293
# T5 sequence (P0DMS8 1-318): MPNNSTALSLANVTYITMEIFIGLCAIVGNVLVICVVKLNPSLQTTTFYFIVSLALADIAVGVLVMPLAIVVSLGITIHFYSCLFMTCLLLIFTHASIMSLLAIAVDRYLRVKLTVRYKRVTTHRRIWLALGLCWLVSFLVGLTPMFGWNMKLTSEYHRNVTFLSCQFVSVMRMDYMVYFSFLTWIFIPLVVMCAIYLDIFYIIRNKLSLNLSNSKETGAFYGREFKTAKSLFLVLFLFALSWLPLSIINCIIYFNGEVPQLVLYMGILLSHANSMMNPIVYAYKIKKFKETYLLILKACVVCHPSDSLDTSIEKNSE
# [5] = biological target: T6, human A2b receptor subtype (Homo sapiens, UniProt P29275); experiment: Adenosine 2b receptor subtype competition radioligand binding, [3H]DPCPX, HEK293 membranes; details: for Ki: Table 14, read-out: Binding Data K1 (nM) A2B
# T6 construct: expressed in transfected cells; host or cells: HEK293
# T6 sequence (P29275 1-332): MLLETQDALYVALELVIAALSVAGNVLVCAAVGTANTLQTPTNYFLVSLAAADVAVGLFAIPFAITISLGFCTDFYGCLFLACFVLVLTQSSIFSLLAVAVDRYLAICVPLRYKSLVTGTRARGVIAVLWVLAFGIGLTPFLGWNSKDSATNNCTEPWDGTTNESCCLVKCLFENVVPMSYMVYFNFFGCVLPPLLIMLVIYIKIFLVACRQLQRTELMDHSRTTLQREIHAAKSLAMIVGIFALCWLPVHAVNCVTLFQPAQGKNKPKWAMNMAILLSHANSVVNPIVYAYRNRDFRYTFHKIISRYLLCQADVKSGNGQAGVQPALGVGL
# T3 sequence (P29274 whole entry): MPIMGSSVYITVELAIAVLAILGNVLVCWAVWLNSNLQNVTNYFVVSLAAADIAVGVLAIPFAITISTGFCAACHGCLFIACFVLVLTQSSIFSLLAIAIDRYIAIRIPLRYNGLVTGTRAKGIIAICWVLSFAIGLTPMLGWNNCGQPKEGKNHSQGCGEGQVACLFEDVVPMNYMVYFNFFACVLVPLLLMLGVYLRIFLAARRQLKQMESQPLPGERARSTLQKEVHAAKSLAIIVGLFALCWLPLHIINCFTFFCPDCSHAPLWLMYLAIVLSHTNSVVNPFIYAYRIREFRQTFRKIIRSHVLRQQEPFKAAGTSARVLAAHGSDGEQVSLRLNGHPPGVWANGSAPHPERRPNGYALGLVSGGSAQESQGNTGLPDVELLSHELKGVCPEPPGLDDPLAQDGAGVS
structure (smiles),measurement,setting,value
"CC(Cc1ccccc1)Nc1ncnc2c1ncn2[C@@H]1O[C@H](CO)[C@@H](O)[C@H]1O (single isomer, unassigned; (-)) [R-PIA, (−)-N6-(2-phenylisopropyl)-adenosine]",reported affinity,[1],approximately 50 nM
"NC(=O)[C@H]1CCCN1c1nc(-c2ccncc2)nc2[nH]c(-c3ccccc3)cc12 [Compound 1609, 1-(6-Phenyl-2-pyridin-4-yl-7H-pyrrolo[2,3-d]pyrimidin-4-yl]-pyrrolidine-2-carboxylic acid amide]",melting point,,280 to 316 °C (dec.)
Cc1[nH]c2nc(-c3ccccc3)nc(NCCNC(=O)CCN)c2c1C [Compound 1009],IC50,human adenosine A1 (A1R),> 10 µM
Cc1[nH]c2nc(-c3ccccc3)nc(NCCN)c2c1C [Compound 1000],IC50,human adenosine A1 (A1R),> 10 µM
Cc1[nH]c2nc(-c3ccccc3)nc(NCCNC(=O)C3(N)CC3)c2c1C [Compound 1313],"% activity, A2a binding",[2],65%
same,"% activity, A1 binding",[3],30%
"CC(=O)NCCNc1nc(-c2ccccc2)nc2[nH]c(COc3ccc(Cl)cc3)cc12 [Compound 1402, 4-(2-acetylaminoethyl)amino-6-(4-chlorophenoxy)methyl-2-phenyl-7H-pyrrolo[2,3d]pyrimidine]",Ki,[4],60 nM
OC[C@H]1CCCN1c1nc(-c2ccncc2)nc2[nH]ccc12 [Compound 1601],melting point,,210 to 220 °C (dec.)
Cc1[nH]c2nc(-c3ccccc3)nc(N[C@H]3CC[C@H](O)CC3)c2c1C [Compound 1305],"% activity, A2b binding","[5]; Table 13, in %, footnote 8: % activity @ 10 μM",30%
Cc1[nH]c2nc(-c3ccccc3)nc(NCCNS(C)(=O)=O)c2c1C [Compound 1007],IC50,human adenosine A1 (A1R),> 10 µM
"CC(=O)NCCNc1nc(-c2ccccc2)nc2[nH]c(COc3ccc(F)cc3)cc12 [Compound 1401, 4-(2-acetylaminoethyl)amino-6-(4-fluorophenoxy)methyl-2-phenyl-7H-pyrrolo[2,3d]pyrimidine]",Ki,[5],8.8 nM
"CC(=O)NCCNc1nc(-c2ccccc2)nc2[nH]c(COc3ccccc3)cc12 [Compound 1400, 4-(2-acetylaminoethyl)amino-6-phenoxymethyl-2-phenyl-7H-pyrrolo[2,3d]pyrimidine]",Ki,[5],10.3 nM
CNC(=O)NCCCNc1nc(-c2ccccc2)nc2[nH]c(C)c(C)c12 [Compound 1310],"% activity, A2a binding",[2],76%
"CC(=O)NCCNc1nc(-c2ccccc2)nc2[nH]c(COc3ccccc3)cc12 [(25), 4-(2-acetylaminoethyl)amino-6-phenoxymethyl-2-phenyl-7H-pyrrolo[2,3d]pyrimidine]",melting point,,196 to 197 °C
